Laboratory results taken from patent US10099993B2, “Metabotropic glutamate receptor positive allosteric modulators (PAMS) and uses thereof” (Sanford-Burnham Medical Research Institute, priority 2014, dated 2018).
Entries after “also recorded” stand apart in the source; their conditions may differ.

Columns and labels:
[1] = format: in vitro ADME; conditions: rat, 1 h
[2] = rat, microsomes, 1 h
[3] = 100 μM, pH 7.2
mGlu1 = mGlu1 (Rattus norvegicus (Rat), UniProt P23385); experiment: mGlu1 calcium assay; format: cell-based; conditions: full agonist concentration-response ± 10 μM compound
mGlu4 = mGlu4 (Rattus norvegicus (Rat), UniProt P31423); experiment: mGlu4 GIRK thallium flux assay; format: cell-based; conditions: full agonist concentration-response ± 10 μM compound
Chain of mGlu4 (P31423 33-912): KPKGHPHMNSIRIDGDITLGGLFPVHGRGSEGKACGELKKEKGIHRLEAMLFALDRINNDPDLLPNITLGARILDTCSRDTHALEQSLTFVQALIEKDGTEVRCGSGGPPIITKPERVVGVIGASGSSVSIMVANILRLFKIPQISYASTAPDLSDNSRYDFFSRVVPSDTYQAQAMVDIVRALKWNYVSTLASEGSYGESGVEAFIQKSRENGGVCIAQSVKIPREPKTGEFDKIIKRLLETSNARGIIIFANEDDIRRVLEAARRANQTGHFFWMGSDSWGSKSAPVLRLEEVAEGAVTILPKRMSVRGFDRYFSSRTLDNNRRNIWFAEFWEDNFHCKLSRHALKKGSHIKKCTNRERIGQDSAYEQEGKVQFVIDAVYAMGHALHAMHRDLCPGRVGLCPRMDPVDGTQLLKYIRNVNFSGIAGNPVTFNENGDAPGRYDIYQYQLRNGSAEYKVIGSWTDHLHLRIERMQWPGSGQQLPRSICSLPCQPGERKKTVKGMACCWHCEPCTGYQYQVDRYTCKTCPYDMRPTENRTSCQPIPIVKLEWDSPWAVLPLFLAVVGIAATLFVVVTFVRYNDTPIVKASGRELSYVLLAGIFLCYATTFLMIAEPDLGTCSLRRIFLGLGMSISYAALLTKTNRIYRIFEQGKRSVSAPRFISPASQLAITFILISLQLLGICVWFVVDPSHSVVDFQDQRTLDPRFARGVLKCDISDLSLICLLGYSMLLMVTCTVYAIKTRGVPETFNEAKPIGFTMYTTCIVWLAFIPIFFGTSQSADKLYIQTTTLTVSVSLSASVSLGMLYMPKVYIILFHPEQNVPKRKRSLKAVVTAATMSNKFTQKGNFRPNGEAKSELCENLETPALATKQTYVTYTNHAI

mGlu5 = mGlu5 (Rattus norvegicus (Rat), UniProt P31424); experiment: mGlu5 calcium assay; format: cell-based; conditions: full agonist concentration-response ± 10 μM compound
Chain of mGlu5 (P31424 21-1203): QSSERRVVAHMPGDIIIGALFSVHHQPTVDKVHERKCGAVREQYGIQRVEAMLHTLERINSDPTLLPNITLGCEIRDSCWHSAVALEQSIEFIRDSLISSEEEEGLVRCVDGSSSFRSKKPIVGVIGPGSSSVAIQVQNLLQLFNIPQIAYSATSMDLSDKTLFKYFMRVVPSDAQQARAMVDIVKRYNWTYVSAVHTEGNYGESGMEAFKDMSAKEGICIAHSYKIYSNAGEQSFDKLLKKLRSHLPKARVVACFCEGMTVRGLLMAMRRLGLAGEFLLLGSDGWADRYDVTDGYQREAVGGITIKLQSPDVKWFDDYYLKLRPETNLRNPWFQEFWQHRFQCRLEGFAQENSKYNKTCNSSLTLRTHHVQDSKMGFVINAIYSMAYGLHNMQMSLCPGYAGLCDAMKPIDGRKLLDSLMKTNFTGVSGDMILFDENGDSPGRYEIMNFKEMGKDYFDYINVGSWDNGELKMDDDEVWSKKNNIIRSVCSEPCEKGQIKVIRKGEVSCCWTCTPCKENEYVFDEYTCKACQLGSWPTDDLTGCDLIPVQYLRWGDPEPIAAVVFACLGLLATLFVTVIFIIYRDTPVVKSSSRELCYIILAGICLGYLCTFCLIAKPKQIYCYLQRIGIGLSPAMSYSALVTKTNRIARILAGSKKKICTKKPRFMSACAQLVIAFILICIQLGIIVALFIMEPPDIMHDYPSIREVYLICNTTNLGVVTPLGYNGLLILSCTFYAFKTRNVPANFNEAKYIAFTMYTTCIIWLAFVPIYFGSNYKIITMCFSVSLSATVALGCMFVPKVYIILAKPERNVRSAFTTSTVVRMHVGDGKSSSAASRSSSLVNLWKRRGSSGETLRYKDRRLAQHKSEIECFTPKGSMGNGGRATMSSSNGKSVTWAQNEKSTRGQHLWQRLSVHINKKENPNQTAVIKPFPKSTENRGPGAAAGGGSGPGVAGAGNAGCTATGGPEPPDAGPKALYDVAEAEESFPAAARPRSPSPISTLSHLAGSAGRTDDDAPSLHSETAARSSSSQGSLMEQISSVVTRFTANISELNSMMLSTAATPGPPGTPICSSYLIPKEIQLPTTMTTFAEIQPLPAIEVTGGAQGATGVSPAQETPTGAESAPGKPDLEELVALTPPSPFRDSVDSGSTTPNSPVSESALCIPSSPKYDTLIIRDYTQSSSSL

mGlu6 = mGlu6 (Rattus norvegicus (Rat), UniProt P35349); experiment: mGlu6 GIRK thallium flux assay; format: cell-based; conditions: full agonist concentration-response ± 10 μM compound
Chain of mGlu6 (P35349 24-871): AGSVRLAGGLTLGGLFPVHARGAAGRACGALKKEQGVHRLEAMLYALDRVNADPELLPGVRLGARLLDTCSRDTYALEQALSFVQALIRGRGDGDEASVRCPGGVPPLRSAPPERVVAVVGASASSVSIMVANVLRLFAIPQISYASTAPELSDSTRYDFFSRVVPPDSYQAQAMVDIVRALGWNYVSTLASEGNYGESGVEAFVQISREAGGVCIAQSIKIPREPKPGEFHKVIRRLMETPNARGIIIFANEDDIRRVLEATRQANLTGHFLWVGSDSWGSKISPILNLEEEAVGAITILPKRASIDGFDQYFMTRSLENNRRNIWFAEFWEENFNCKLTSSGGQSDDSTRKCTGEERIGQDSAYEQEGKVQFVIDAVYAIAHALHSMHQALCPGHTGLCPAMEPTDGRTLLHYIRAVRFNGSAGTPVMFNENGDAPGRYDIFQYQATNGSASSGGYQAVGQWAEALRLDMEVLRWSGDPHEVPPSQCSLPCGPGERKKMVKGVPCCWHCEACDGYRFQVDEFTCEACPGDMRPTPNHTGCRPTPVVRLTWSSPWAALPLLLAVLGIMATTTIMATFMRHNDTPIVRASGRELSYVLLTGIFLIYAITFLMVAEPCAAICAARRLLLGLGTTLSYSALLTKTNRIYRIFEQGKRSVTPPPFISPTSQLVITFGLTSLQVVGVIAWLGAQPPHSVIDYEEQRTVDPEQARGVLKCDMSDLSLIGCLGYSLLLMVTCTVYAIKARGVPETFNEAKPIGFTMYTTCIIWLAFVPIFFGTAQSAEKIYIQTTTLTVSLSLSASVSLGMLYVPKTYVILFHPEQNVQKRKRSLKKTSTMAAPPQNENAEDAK

mGlu7 = mGlu7 (Rattus norvegicus (Rat), UniProt P35400); experiment: mGlu7 GIRK thallium flux assay; format: cell-based; conditions: full L-AP4 concentration-response ± 10 μM compound
mGlu8 = mGlu8 (Rattus norvegicus (Rat), UniProt P70579); experiment: mGlu8 GIRK thallium flux assay; format: cell-based; conditions: full agonist concentration-response ± 10 μM compound
forty-five CNS receptors = experiment: CNS receptors panel (NIMH PDSP), radioligand binding; conditions: 10 μM
Adrenergic α2C = Adrenergic α2C (Homo sapiens (Human), UniProt P18825); experiment: PDSP radioligand binding; conditions: displacement of radioligand
Chain of Adrenergic α2C (P18825 whole entry): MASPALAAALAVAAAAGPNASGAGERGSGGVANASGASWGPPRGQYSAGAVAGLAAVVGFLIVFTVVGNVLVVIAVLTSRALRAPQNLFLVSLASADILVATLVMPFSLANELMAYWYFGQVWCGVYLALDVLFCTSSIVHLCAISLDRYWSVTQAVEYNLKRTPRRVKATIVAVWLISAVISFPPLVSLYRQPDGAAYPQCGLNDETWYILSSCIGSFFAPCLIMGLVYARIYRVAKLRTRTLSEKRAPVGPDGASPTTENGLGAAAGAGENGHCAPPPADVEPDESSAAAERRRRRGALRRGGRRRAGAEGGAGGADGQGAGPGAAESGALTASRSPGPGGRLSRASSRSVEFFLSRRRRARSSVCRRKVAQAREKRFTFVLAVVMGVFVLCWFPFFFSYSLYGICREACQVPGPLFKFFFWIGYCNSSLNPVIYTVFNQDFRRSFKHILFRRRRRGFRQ

Dopamine D2 = Dopamine D2 (Homo sapiens (Human), UniProt P14416); experiment: PDSP radioligand binding; conditions: Dopamine D2, 10 μM, displacement of radioligand
Dopamine D5 = Dopamine D5 (Homo sapiens (Human), UniProt P21918); experiment: PDSP radioligand binding; conditions: Dopamine D5, 10 μM, displacement of radioligand
Histamine H1 = Histamine H1 (Homo sapiens (Human), UniProt P35367); experiment: PDSP radioligand binding; conditions: Histamine H1, 10 μM, displacement of radioligand
Muscarinic M2 = Muscarinic M2 (Homo sapiens (Human), UniProt P08172); experiment: PDSP radioligand binding; conditions: Muscarinic M2, 10 μM, displacement of radioligand
Muscarinic M4 = Muscarinic M4 (Homo sapiens (Human), UniProt P08173); experiment: PDSP radioligand binding; conditions: Muscarinic M4, 10 μM, displacement of radioligand
[4] = biological target: Peripheral benzodiazepine receptor ([3H]PK11195) (Rattus norvegicus (Rat), UniProt P16257); experiment: PDSP radioligand binding
[5] = biological target: Serotonin (5-Hydroxytryptamine) 5-HT2A (Homo sapiens (Human), UniProt P28223); experiment: PDSP radioligand binding; conditions: displacement of radioligand
[6] = biological target: Transporter, Serotonin (5-Hydroxytryptamine) (SERT) (Homo sapiens (Human), UniProt P31645); experiment: PDSP radioligand binding; conditions: displacement of radioligand
mGlu2 = mGlu2 (Rattus norvegicus (Rat), UniProt P31421); experiment: mGlu2 GIRK thallium flux assay;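 also: Cell-based assay, rate of fluorescence rise right after thallium plus agonist addition read on a kinetic imaging plate reader, normalized to vehicle and maximal agonist control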
Chain of mGlu2 (P31421 19-872): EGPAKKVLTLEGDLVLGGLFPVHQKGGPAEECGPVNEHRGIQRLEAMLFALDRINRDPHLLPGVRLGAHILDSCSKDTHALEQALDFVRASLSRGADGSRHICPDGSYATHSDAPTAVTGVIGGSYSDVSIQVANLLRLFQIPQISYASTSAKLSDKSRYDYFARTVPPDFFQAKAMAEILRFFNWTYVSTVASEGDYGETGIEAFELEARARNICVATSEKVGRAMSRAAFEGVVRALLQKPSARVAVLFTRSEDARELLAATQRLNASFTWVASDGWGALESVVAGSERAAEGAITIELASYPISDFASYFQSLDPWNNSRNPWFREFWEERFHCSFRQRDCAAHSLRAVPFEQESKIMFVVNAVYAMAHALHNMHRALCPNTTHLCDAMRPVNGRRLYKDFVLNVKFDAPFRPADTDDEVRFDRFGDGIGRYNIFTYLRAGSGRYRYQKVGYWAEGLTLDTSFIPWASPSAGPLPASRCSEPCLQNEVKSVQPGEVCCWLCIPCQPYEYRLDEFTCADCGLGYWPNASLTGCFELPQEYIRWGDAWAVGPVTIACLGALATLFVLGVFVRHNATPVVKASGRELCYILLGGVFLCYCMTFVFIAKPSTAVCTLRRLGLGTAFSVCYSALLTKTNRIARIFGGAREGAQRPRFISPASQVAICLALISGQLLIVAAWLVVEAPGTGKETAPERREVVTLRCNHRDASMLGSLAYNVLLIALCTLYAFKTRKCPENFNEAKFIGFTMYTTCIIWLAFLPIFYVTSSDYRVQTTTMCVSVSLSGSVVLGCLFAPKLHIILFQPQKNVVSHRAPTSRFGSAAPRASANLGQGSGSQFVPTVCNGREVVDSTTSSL

mGlu3 = mGlu3 (Rattus norvegicus (Rat), UniProt P31422); experiment: mGlu3 GIRK thallium flux assay; conditions: for General activity at mGlu3: full agonist concentration-response ± 10 μM compound;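 as to all read-outs here: kinetic fluorescence slope read shortly after thallium plus agonist addition, scaled between vehicle and maximal agonist control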
Chain of mGlu3 (P31422 23-879): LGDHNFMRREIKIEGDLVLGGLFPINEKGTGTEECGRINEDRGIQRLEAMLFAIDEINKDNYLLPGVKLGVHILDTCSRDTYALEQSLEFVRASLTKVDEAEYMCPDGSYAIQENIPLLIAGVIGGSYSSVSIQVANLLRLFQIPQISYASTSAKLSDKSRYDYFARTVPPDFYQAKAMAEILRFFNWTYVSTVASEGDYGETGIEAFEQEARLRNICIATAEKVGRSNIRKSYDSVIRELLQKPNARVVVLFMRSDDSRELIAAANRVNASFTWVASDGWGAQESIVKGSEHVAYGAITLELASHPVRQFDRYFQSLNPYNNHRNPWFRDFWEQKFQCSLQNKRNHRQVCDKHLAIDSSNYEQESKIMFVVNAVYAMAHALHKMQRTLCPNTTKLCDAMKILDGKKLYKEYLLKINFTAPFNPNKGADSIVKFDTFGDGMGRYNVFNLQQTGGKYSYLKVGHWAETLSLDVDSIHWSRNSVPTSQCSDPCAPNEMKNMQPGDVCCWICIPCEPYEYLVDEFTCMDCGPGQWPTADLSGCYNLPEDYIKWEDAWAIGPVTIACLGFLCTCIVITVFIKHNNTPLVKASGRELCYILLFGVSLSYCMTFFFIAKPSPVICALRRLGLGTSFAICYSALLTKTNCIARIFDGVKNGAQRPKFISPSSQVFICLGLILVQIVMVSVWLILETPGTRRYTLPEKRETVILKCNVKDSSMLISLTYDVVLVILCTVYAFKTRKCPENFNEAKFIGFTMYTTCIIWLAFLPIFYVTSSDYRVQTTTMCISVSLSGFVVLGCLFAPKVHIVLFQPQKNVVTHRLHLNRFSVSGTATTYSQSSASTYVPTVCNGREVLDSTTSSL

[7] = In vivo PK in rats, i.p. administration; conditions: 10 mg/kg
[8] = rat, in vivo, ip, 10 mg/kg
[9] = tested on: cocaine-maintained responding in rats; experiment: Cocaine self-administration experiment; format: in vivo, rat
Method: (§1) Subjects. Male Wistar rats (Charles River Laboratories, Raleigh, N.C.) weighing 300-350 g at the beginning of each experiment were housed in pairs in standard rat Plexiglas cages with food and water available ad libitum, except during food training and the food self-administration experiment (see below). Rats were maintained in a climate-controlled room at 21° C. on a 12 h reverse light/dark cycle and all experiments were conducted during the dark (i.e., active) phase (7:00 h-19:00 h) of the cycle under dim red lighting. All procedures were conducted in accordance with the guidelines from the National Institutes of Health and the Association for the Assessment and Accreditation of Laboratory Animal Care and were approved by the Institutional Animal Care and Use Committee.
Drugs. Cocaine hydrochloride (National Institute on Drug Abuse, Bethesda, Md.) was dissolved in sterile physiological saline and filtered through a 0.22 μm syringe filter (Fisher Scientific, Pittsburgh, Pa.) for sterilization purposes.
Food Training. […]
(§2) Statistical Analyses. […] Significant effects were further analyzed with Tukey post hoc tests. […]

[10] = tested on: food-maintained responding in rats; experiment: Food self-administration experiment; format: in vivo, rat; conditions: rats, 0, 10, 20, 40 mg/kg i.p., 60 min pretreatment
Method: as §1
Food Training. Details regarding the experimental procedures have been described previously.^37 All rats were placed under food restriction (20 g food/day) and trained during daily 1 hr sessions to lever press for 45 mg food pellets (Research Diets, New Brunswick, N.J.) under a fixed ratio 1 reinforcement schedule with a 1 s time-out period (FR1 TO1s). Successful responses were followed by illumination of a cue light for the duration of the time-out period, when lever presses had no consequence. […]
as §2

COc1cc(C(=O)O)ccc1OCCCCOc1ccc(C(=O)CC2CCCC2)c(O)c1C [Compound 45, 4-{4-[4-(2-Cyclopentylacetyl)-3-hydroxy-2-methylphenoxy]butoxy}-methoxybenzoic acid]
Plasma Stability, percent remaining [1]: 100% | Microsomal stability, percent remaining [2]: 31% | PAMPA (LogPapp) [3]: −6.54

COc1ccc(C(=O)O)cc1OCCCCOc1ccc(C(=O)CC(C)(C)C)c(O)c1C [compound 72, 3-(4-(4-(3,3-Dimethylbutanoyl)-3-hydroxy-2-methylphenoxy)butoxy)-4-methoxybenzoic acid]
General activity at mGlu1 (mGlu1): inactive^b | General activity at mGlu4 (mGlu4): inactive^b | General activity at mGlu5 (mGlu5): inactive^b | General activity at mGlu6 (mGlu6): inactive^b | General activity at mGlu7 (mGlu7): inactive^b | General activity at mGlu8 (mGlu8): inactive^b | binding activity at forty-five CNS receptors (forty-five CNS receptors): no binding activity was detected | inhibition at 10 µM (Adrenergic α2C): 0.6% | inhibition at 10 µM (Dopamine D2): 1% | inhibition at 10 µM (Dopamine D5): -0.9% | inhibition at 10 µM (Histamine H1): 0.2% | inhibition at 10 µM (Muscarinic M2): -1% | inhibition at 10 µM (Muscarinic M4): -0.9% | inhibition at 10 µM [4]: 1% | inhibition at 10 µM [5]: -0.6% | inhibition at 10 µM [6]: 0.3% | General activity at mGlu2 (mGlu2; full agonist concentration-response ± 10 μM compound): Ago-PAM | Emin, minimal response of the concentration-response of agonist (mGlu2; mGlu2, 10 μM compound): Emin = 72% | General activity at mGlu3 (mGlu3): Ago-PAM | Emin, minimal response of the concentration-response of agonist (mGlu3; mGlu3, 10 μM compound): Emin = 54% | Plasma, maximum concentration ([7]; rats, i.p., Tmax 30 min): 2.44 ± 2.19 µM

COc1cc(C(=O)O)ccc1OCCCCOc1ccc(C(=O)CC(C)(C)C)c(O)c1C [compound 73]
General activity at mGlu1 (mGlu1): inactive^b | General activity at mGlu4 (mGlu4): inactive^b | General activity at mGlu5 (mGlu5): inactive^b | General activity at mGlu6 (mGlu6): PAM | General activity at mGlu7 (mGlu7): inactive^b | General activity at mGlu8 (mGlu8): inactive^b | PAMPA (LogPapp) [3]: −5.46 | Brain: Plasma [8]: 0.02 ± 0.01 | General activity at mGlu3 (mGlu3): Ago-PAM

Cc1c(OCCCCOc2ccc(C(=O)CC(C)(C)C)c(O)c2C)cccc1C(=O)O [compound 74, 3-(4-(4-(3,3-Dimethylbutanoyl)-3-hydroxy-2-methylphenoxy)butoxy)-2-methylbenzoic acid]
cocaine-maintained responding ([9]; rats, 0, 10, 20, 40 mg/kg i.p., 60 min pretreatment): dose-dependently decreased; also recorded: decreasing cocaine-maintained responding | cocaine-maintained responding compared with food-maintained responding ([9]; rats, highest dose tested 40 mg/kg i.p., p<0.05): decreased to a greater extent than food-maintained responding; also recorded: cocaine-maintained responding was significantly lower than food-maintained responding | food-maintained responding [10]: dose-dependently decreased | Kp at 30 min ([7]; rat, brain and plasma, ip): 0.03 ± 0.01
